Patent US7598397B2, “Sulfonamide peri-substituted bicyclics for occlusive artery disease” (deCODE genetics ehf, priority 2004, dated 2009)

Molecular target: T1, prostanoid EP3 receptors (Homo sapiens, UniProt P43115)
T1 sequence (P43115 1-390): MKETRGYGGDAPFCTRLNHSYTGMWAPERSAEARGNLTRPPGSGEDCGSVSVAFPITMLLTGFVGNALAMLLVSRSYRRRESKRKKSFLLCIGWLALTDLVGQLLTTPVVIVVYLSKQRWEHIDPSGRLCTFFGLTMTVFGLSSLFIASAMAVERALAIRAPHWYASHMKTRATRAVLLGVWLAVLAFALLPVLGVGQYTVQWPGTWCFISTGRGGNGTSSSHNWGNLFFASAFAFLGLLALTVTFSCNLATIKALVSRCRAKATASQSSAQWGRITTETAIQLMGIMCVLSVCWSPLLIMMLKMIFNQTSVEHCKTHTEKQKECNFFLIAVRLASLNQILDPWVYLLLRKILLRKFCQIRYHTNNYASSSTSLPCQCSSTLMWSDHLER
Assay: binding on prostanoid EP3 receptors (method of Abramovitz et al.)
Settings: read-out: Activity (EP3 receptor binding, IC50 class)
Protocol: The compounds of the invention were assayed for their binding on prostanoid EP3 receptors according to the method of Abramovitz et al. [Bioch. Biophys.

Row | SMILES | IC50 [nM]
1 | Cn1cc(C=CC(=O)NS(=O)(=O)c2cc(F)c(F)cc2F)c2c(Oc3ccc(Cl)cc3F)cccc21 [Compound P337] | < 1000
2 | Cc1cn(Cc2cn3ccccc3n2)c2c(C=CC(=O)NS(=O)(=O)c3cc(F)ccc3F)cc(F)cc12 [Compound P407] | < 1000
3 | CC(C)c1cn(Cc2ccc(Cl)cc2Cl)c2c(CCC(=O)NS(=O)(=O)c3cccs3)cccc12 [Compound P091] | 1000 to 10000
4 | O=C(COc1cccc2oc(=O)n(Cc3ccc(Cl)cc3Cl)c12)NS(=O)(=O)c1cccs1 [Compound P052] | < 1000
5 | O=C(COc1cccc2[nH]cc(Sc3ncccn3)c12)NS(=O)(=O)c1cc(Cl)c(Cl)s1 [Compound P211] | < 1000
6 | Cc1cn(Cc2ccccc2)c2c(/C=C/C(=O)NS(=O)(=O)c3cccs3)cccc12 [Compound P084] | < 1000
7 | O=C(COc1cccc2[nH]cc(Sc3ccc4ccccc4c3)c12)NS(=O)(=O)c1ccc(F)cc1 [Compound P225] | < 1000
8 | O=C(C=Cc1cccc2c1N(Cc1ccc(Cl)cc1Cl)C(=O)C2O)NS(=O)(=O)c1cc(Cl)c(Cl)s1 (stereo not drawn) [Compound P130] | < 1000
9 | Cn1nnnc1Sc1c[nH]c2cccc(OCC(=O)NS(=O)(=O)c3cc(Cl)c(Cl)s3)c12 [Compound P227] | < 1000
10 | Cc1nc2cccc(OCC(=O)NS(=O)(=O)c3cccs3)c2n1Cc1ccc2ccccc2c1 [Compound P037, Thiophen-2-sulfonic acid [2-(2-methyl-3-naphthalen-2-ylmethyl-3H-benzoimidazol-4-yloxy)-acetyl] amide] | 1000 to 10000
11 | O=C(COc1cccc2oc(=O)n(Cc3ccc4ccccc4c3)c12)NS(=O)(=O)C(F)(F)F [Compound P048] | 1000 to 10000
12 | Cn1cc(C=CC(=O)NS(=O)(=O)c2ccccc2Cl)c2c(Oc3ccc4ccccc4c3)cccc21 [Compound P352] | < 1000
13 | Cc1cn(CCC(=O)NS(=O)(=O)c2cc(Cl)c(Cl)s2)c2c(Oc3ccc(Cl)cc3Cl)cc(F)cc12 [Compound P384] | < 1000
14 | CC1(F)C(=O)N(Cc2ccc3ccccc3c2)c2c(C=CC(=O)NS(=O)(=O)c3cccs3)cccc21 (stereo not drawn) [Compound P160] | < 1000
15 | O=C(C=Cc1cccc2c1C(Cc1ccc3ccccc3c1)C(=O)N2)NS(=O)(=O)c1cc(Cl)c(Cl)s1 (stereo not drawn) [Compound P155] | < 1000
16 | CN1C(=O)C(Nc2ccc(Cl)cc2Cl)c2c(C=CC(=O)NS(=O)(=O)c3cc(Cl)c(Cl)s3)cccc21 (stereo not drawn) [Compound P252] | < 1000
17 | O=C(C=Cc1cc(F)cc2ccn(Cc3ccc(Cl)cc3Cl)c12)NS(=O)(=O)c1cccs1 [Compound P061] | < 1000
18 | COc1cc(Cn2cc(C)c3cc(F)cc(C=CC(=O)NS(=O)(=O)c4cc(F)c(F)cc4F)c32)cc(OC)c1 [Compound P375] | < 1000
19 | CCOP(=O)(NC(=O)OCc1cccc2ccn(Cc3ccc4ccccc4c3)c12)OCC [Compound P044] | 1000 to 10000
20 | Cn1cc(C=CC(=O)NS(=O)(=O)c2cc(Cl)c(Cl)s2)c2c(Oc3cccc(Cl)c3Cl)cccc21 [Compound P291] | < 1000
21 | CC12CCCC(C=CC(=O)NS(=O)(=O)c3ccc(F)cc3)=C1N(Cc1ccc(Cl)cc1Cl)C(=O)C2 (stereo not drawn) [Compound P274] | < 1000

Row | SMILES | IC50 [nM]
22 | Cc1cn(Cc2cn3ccccc3n2)c2c(C=CC(=O)NS(=O)(=O)c3cccc(F)c3)cc(F)cc12 [Compound P401] | < 1000
23 | O=C(COc1cccc2c1C(F)(Cc1ccc3ccccc3c1)C(=O)N2)NS(=O)(=O)c1cc(Cl)c(Cl)s1 (stereo not drawn) [Compound P157] | < 1000
24 | COc1ccc(Sc2c[nH]c3cccc(OCC(=O)NS(=O)(=O)c4cc(Cl)c(Cl)s4)c23)cc1 [Compound P200] | < 1000
25 | CC12CCCC(C=CC(=O)NS(=O)(=O)c3cc(F)c(F)cc3F)=C1N(Cc1ccc(Cl)cc1Cl)C(=O)C2 (stereo not drawn) [Compound P275] | < 1000
26 | Cn1cc(/C=C/C(=O)NS(=O)(=O)c2cc(Cl)c(Cl)s2)c2c(Oc3ccc(Cl)cc3F)cccc21 [Compound P339] | < 1000
27 | CCOC(=O)C12CCCC(C=CC(=O)NS(=O)(=O)c3cc(Cl)c(Cl)s3)=C1N(Cc1ccc(Cl)cc1Cl)C(=O)C2 (stereo not drawn) [Compound P345] | < 1000
28 | Cc1cn(Cc2ccc(OC(F)(F)F)cc2)c2c(/C=C/C(=O)NS(=O)(=O)c3cc(Cl)c(Cl)s3)cccc12 [Compound P143] | < 1000
29 | Cn1cc(C=CC(=O)NS(=O)(=O)c2cc(Cl)c(Cl)s2)c2c(Oc3ccc(F)cc3Cl)cccc21 [Compound P342] | < 1000
30 | CC12CCCC(C=CC(=O)NS(=O)(=O)c3cc(Cl)c(Cl)s3)=C1N(Cc1cccc(Cl)c1)C(=O)C2 (stereo not drawn) [Compound P285] | < 1000
31 | CN1C(=O)C(Sc2ccc3ccccc3c2)c2c(OCC(=O)NS(=O)(=O)c3cc(Cl)c(Cl)s3)cccc21 (stereo not drawn) [Compound P229] | < 1000
32 | CC(C)C1C(=O)N(Cc2ccc(Cl)cc2Cl)c2c(CCC(=O)NS(=O)(=O)c3cccs3)cccc21 (stereo not drawn) [Compound P093] | 1000 to 10000
33 | Cn1cc(Oc2ccc3ccccc3c2)c2c(C=CC(=O)NS(=O)(=O)c3cc(Cl)c(Cl)s3)cccc21 [Compound P277] | < 1000
34 | CC12CCCC(C=CC(=O)NS(=O)(=O)c3ccc(Cl)s3)=C1N(Cc1ccc(Cl)cc1Cl)C(=O)C2 (stereo not drawn) [Compound P279] | < 1000
35 | COc1cccc(CN2C(=O)CC3(C)CCCC(C=CC(=O)NS(=O)(=O)c4cc(Cl)c(Cl)s4)=C23)c1 (stereo not drawn) [Compound P260] | < 1000
36 | Cn1cc(C=CC(=O)NS(=O)(=O)c2ccccc2F)c2c(Oc3ccc4ccccc4c3)cccc21 [Compound P364] | < 1000
37 | Cc1cn(Cc2ccccc2C#N)c2c(/C=C/C(=O)NS(=O)(=O)c3cc(Cl)c(Cl)s3)cc(F)cc12 [Compound P389] | < 1000
38 | Cc1cn(Cc2c(Cl)cccc2Cl)c2c(/C=C/C(=O)NS(=O)(=O)c3cc(Cl)c(Cl)s3)cccc12 [Compound P124] | < 1000
39 | Cc1cn(CC2CCOCC2)c2c(/C=C/C(=O)NS(=O)(=O)c3cc(Cl)c(Cl)s3)cccc12 [Compound P144] | < 1000
40 | Cc1cn(Cc2cc(F)cc3c2OCOC3)c2c(/C=C/C(=O)NS(=O)(=O)c3cccs3)cccc12 [Compound P102] | < 1000
41 | Cc1cn(CCC(=O)NS(=O)(=O)c2cc(F)c(F)cc2F)c2c(Oc3ccc(Cl)cc3Cl)cc(F)cc12 [Compound P382] | < 1000
42 | CC12CCCC(C=CC(=O)NS(=O)(=O)c3cc(Cl)cc(Cl)c3)=C1N(Cc1ccc(F)c(F)c1)C(=O)C2 (stereo not drawn) [Compound P266] | < 1000

Row | SMILES | IC50 [nM]
43 | Cc1cn(Cc2ccccc2)c2c(/C=C/C(=O)NS(=O)(=O)c3cc(Cl)c(Cl)s3)cccc12 [Compound P122] | < 1000
44 | CC12CCCC(C=CC(=O)NS(=O)(=O)c3ccc(F)c(F)c3)=C1N(Cc1ccc(F)cc1)C(=O)C2 (stereo not drawn) [Compound P294] | < 1000
45 | O=C(Nc1cccc2c1N(Cc1ccc3ccccc3c1)C(=O)CO2)C(=O)NS(=O)(=O)c1cccs1 [Compound P019, N-(4-Naphthalen-2-ylmethyl-3-oxo-3,4-dihydro-2H-benzo[1,4]oxazin-5-yl)-2-oxo-2-(thiophen-2-sulfonylamino)-acetamide] | 1000 to 10000
46 | COc1cc(Cn2cc(C)c3cccc(/C=C/C(=O)NS(=O)(=O)c4cc(Cl)c(Cl)s4)c32)cc(OC)c1 [Compound P141] | < 1000
47 | CC12CCCC(C=CC(=O)NS(=O)(=O)c3ccc(F)c(F)c3)=C1N(Cc1ccc(F)c(F)c1)C(=O)C2 (stereo not drawn) [Compound P304] | < 1000
48 | O=C(C=Cc1cccc2ccn(Cc3ccc4ccccc4c3)c12)NS(=O)(=O)C(F)(F)F [Compound P016] | < 1000
49 | Cc1ccc(C)c(Cn2c(=O)oc3cccc(OCC(=O)NS(=O)(=O)c4cccs4)c32)c1 [Compound P053] | 1000 to 10000
50 | Cc1cn(Cc2ccc(Cl)cc2Cl)c2c(CCC(=O)NS(=O)(=O)c3cc(Cl)c(Cl)s3)cccc12 [Compound P072] | < 1000
51 | Cn1cc(C=CC(=O)NS(=O)(=O)c2ccc(Cl)cc2)c2c(Oc3ccc4ccccc4c3)cccc21 [Compound P365] | < 1000
52 | Cc1ccc(C)c(CN2C(=O)COc3cccc(OCC(=O)NS(=O)(=O)c4cccs4)c32)c1 [Compound P021] | 1000 to 10000
53 | Cn1cc(C=CC(=O)NS(=O)(=O)c2ccc(F)c(F)c2)c2c(Oc3ccc(Cl)cc3F)cccc21 [Compound P338] | < 1000
54 | O=C(COc1cccc2[nH]cc(S(=O)(=O)c3ccc(F)cc3Cl)c12)NS(=O)(=O)c1cc(Cl)c(Cl)s1 [Compound P234] | < 1000
55 | O=C(C=Cc1cccc2ccn(Cc3ccc4ccccc4c3)c12)NS(=O)(=O)c1cccs1 [Compound P001] | < 1000
56 | Cn1cc(C=CC(=O)NS(=O)(=O)c2cc(F)c(F)cc2F)c2c(Oc3ccc(Cl)c(F)c3)cccc21 [Compound P331] | < 1000
57 | Cn1cc(C=CC(=O)NS(=O)(=O)c2ccc(F)c(F)c2)c2c(Oc3ccc(Cl)c(Cl)c3)cccc21 [Compound P293] | < 1000
58 | CC1(C)C(=O)N(Cc2ccc(Cl)cc2Cl)c2c(C=CC(=O)NS(=O)(=O)c3cc(Cl)c(Cl)s3)cccc21 [Compound P131] | < 1000
59 | Cc1cn(CCC(=O)NS(=O)(=O)c2cccc(Cl)c2)c2c(Oc3ccc(Cl)cc3Cl)cc(F)cc12 [Compound P385] | < 1000
60 | CC1(O)C(=O)N(Cc2ccc3ccccc3c2)c2c(C=CC(=O)NS(=O)(=O)c3cccs3)cccc21 (stereo not drawn) [Compound P111] | < 1000
61 | Cn1cc(C=CC(=O)NS(=O)(=O)c2ccc(F)cc2F)c2c(Oc3ccc4ccccc4c3)cccc21 [Compound P358] | < 1000
62 | Cn1cc(C=CC(=O)NS(=O)(=O)c2c(F)c(F)c(F)c(F)c2F)c2c(Oc3ccc4ccccc4c3)cccc21 [Compound P373] | < 1000
63 | O=C(CCc1cccc2ccn(Cc3ccc4ccccc4c3)c12)NS(=O)(=O)c1cccs1 [Compound P074] | < 1000
